Laboratory results taken from US10597388B2, “Pyridazinone herbicides” (FMC CORPORATION, priority 2014, dated 2020).

Assays:
Assay in all cases: Test C greenhouse herbicide test, pre- and postemergence
Type in all cases: in vivo
[1] = tested on: barnyardgrass (Echinochloa crus-galli)
Method in brief: (§1)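 Seeds sown in loam–sand blend treated preemergence; plants in peat-based medium sprayed postemergence at 2–18 cm (1- to 4-leaf stage); chemicals in non-phytotoxic solvent with surfactant. Greenhouse 13–15 d, then visual rating versus controls on 0–100 scale (0 no effect, 100 complete control).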

[2] = tested on: blackgrass (Alopecurus myosuroides)
Method in brief: as §1

corn (Zea mays) = tested on: corn (Zea mays)
Method in brief: as §1

[3] = tested on: crabgrass, large (large crabgrass, Digitaria sanguinalis)
Method in brief: as §1

[4] = tested on: johnsongrass (Sorghum halepense)
Method in brief: as §1

[5] = tested on: lambsquarters (Chenopodium album)
Method in brief: as §1

[6] = tested on: morningglory (Ipomoea coccinea)
Method in brief: as §1

[7] = tested on: nutsedge, yellow (yellow nutsedge, Cyperus esculentus)
Method in brief: as §1

[8] = tested on: pigweed (Amaranthus retroflexus)
Method in brief: as §1

[9] = tested on: ragweed (common ragweed, Ambrosia elatior)
Method in brief: as §1

[10] = tested on: ryegrass, Italian (Italian ryegrass, Lolium multiflorum)
Method in brief: as §1

soybean (Glycine max) = tested on: soybean (Glycine max)
Method in brief: as §1

[11] = tested on: velvetleaf (Abutilon theophrasti)
Method in brief: as §1

[12] = tested on: waterhemp (common waterhemp, Amaranthus rudis)
Method in brief: as §1

[13] = tested on: wheat (winter wheat, Triticum aestivum)
Method in brief: as §1

[14] = Postemergence, 31 g ai/ha, 0 to 100 scale (0 no effect, 100 complete control)
[15] = Postemergence, 125 g ai/ha, scale 0 to 100, 0 is no effect, 100 is complete control
[16] = Postemergence, 250 g ai/ha, scale 0 to 100, 0 no effect, 100 complete control, 13 to 15 d
[17] = Preemergence, 31 g ai/ha, scale 0 to 100, 0 is no effect, 100 is complete control
[18] = Preemergence, 62 g ai/ha, scale 0 to 100, 0 is no effect, 100 is complete control
[19] = Preemergence, 125 g ai/ha, scale 0 to 100, 0 is no effect, 100 is complete control
[20] = Preemergence, 250 g ai/ha, scale 0 to 100, 0 no effect, 100 complete control
[21] = postemergence, 62 g ai/ha, scale 0 to 100, 0 no effect, 100 complete control

For `Cc1ccc2ccccc2c1-c1c(O)c(I)nn(C)c1=O` [Compound 29], the “Barnyardgrass plant response rating” value [1, 14] was 15, the “Plant response rating, Barnyardgrass” value [1, 15] was 40 and the “Plant response rating, Barnyardgrass” value [1, 16] was 40. The “Plant response rating, Barnyardgrass” value [1, 17] was 10, the “Plant response rating, Barnyardgrass” value [1, 18] was 35 and the “Plant response rating, Barnyardgrass” value [1, 19] was 80. The “Barnyardgrass plant response rating” value [1, 20] was 90, the “Barnyardgrass plant response rating” value [1, 21] was 25 and the “Blackgrass plant response rating” value [2, 14] was 40. For the same compound, the “Plant response rating, Blackgrass” value [2, 15] was 60, the “Plant response rating, Blackgrass” value [2, 16] was 75 and the “Plant response rating, Blackgrass” value [2, 17] was 50. For the same compound, the “Plant response rating, Blackgrass” value [2, 18] was 50, the “Plant response rating, Blackgrass” value [2, 19] was 85 and the “Blackgrass plant response rating” value [2, 20] was 85. The “Blackgrass plant response rating” value [2, 21] was 50, the “Corn plant response rating” value (corn (Zea mays); [14]) was 0 and the “Plant response rating, Corn” value (corn (Zea mays); [15]) was 30. The “Plant response rating, Corn” value (corn (Zea mays); [16]) was 20, the “Plant response rating, Corn” value (corn (Zea mays); [17]) was 0 and the “Plant response rating, Corn” value (corn (Zea mays); [18]) was 0. The “Plant response rating, Corn” value (corn (Zea mays); [19]) was 0, the “Corn plant response rating” value (corn (Zea mays); [20]) was 45 and the “Corn plant response rating” value (corn (Zea mays); [21]) was 10. The “Crabgrass, Large plant response rating” value [3, 14] was 10, the “Plant response rating, Crabgrass, Large” value [3, 15] was 50 and the “Plant response rating, Crabgrass, Large” value [3, 16] was 40. The “Plant response rating, Crabgrass, Large” value [3, 17] was 5, the “Plant response rating, Crabgrass, Large” value [3, 18] was 5 and the “Plant response rating, Crabgrass, Large” value [3, 19] was 55. The “Crabgrass, Large plant response rating” value [3, 20] was 90, the “Crabgrass, Large plant response rating” value [3, 21] was 20 and the “Johnsongrass plant response rating” value [4, 14] was 0. For the same compound, the “Plant response rating, Johnsongrass” value [4, 16] was 25, the “Plant response rating, Johnsongrass” value [4, 17] was 10 and the “Plant response rating, Johnsongrass” value [4, 18] was 5. For the same compound, the “Plant response rating, Johnsongrass” value [4, 19] was 25, the “Johnsongrass plant response rating” value [4, 20] was 20 and the “Johnsongrass plant response rating” value [4, 21] was 5. For the same compound, the “Lambsquarters plant response rating” value [5, 14] was 80, the “Plant response rating, Lambsquarters” value [5, 15] was 85 and the “Plant response rating, Lambsquarters” value [5, 16] was 90. For the same compound, the “Plant response rating, Lambsquarters” value [5, 17] was 75, the “Plant response rating, Lambsquarters” value [5, 18] was 80 and the “Plant response rating, Lambsquarters” value [5, 19] was 80. The “Lambsquarters plant response rating” value [5, 20] was 90, the “Lambsquarters plant response rating” value [5, 21] was 85 and the “Morningglory plant response rating” value [6, 14] was 85. For the same compound, the “Plant response rating, Morningglory” value [6, 15] was 100, the “Plant response rating, Morningglory” value [6, 16] was 100 and the “Plant response rating, Morningglory” value [6, 17] was 80. The “Plant response rating, Morningglory” value [6, 18] was 95, the “Plant response rating, Morningglory” value [6, 19] was 95 and the “Morningglory plant response rating” value [6, 20] was 98. The “Morningglory plant response rating” value [6, 21] was 100, the “Nutsedge, Yellow plant response rating” value [7, 14] was 25 and the “Plant response rating, Nutsedge, Yellow” value [7, 16] was 75. For the same compound, the “Plant response rating, Nutsedge, Yellow” value [7, 17] was 15, the “Plant response rating, Nutsedge, Yellow” value [7, 18] was 80 and the “Plant response rating, Nutsedge, Yellow” value [7, 19] was 85. The “Nutsedge, Yellow plant response rating” value [7, 20] was 85, the “Nutsedge, Yellow plant response rating” value [7, 21] was 35 and the “Pigweed plant response rating” value [8, 14] was 95. The “Plant response rating, Pigweed” value [8, 15] was 98, the “Plant response rating, Pigweed” value [8, 16] was 98 and the “Plant response rating, Pigweed” value [8, 17] was 100. The “Plant response rating, Pigweed” value [8, 18] was 100, the “Plant response rating, Pigweed” value [8, 19] was 100 and the “Pigweed plant response rating” value [8, 20] was 100. The “Pigweed plant response rating” value [8, 21] was 95, the “Ragweed plant response rating” value [9, 14] was 80 and the “Plant response rating, Ragweed” value [9, 15] was 95. For the same compound, the “Plant response rating, Ragweed” value [9, 16] was 95, the “Plant response rating, Ragweed” value [9, 17] was 80 and the “Plant response rating, Ragweed” value [9, 18] was 85. For the same compound, the “Plant response rating, Ragweed” value [9, 19] was 85, the “Ragweed plant response rating” value [9, 20] was 90 and the “Ragweed plant response rating” value [9, 21] was 90. For the same compound, the “Ryegrass, Italian plant response rating” value [10, 14] was 70, the “Plant response rating, Ryegrass, Italian” value [10, 15] was 85 and the “Plant response rating, Ryegrass, Italian” value [10, 16] was 95. For the same compound, the “Plant response rating, Ryegrass, Italian” value [10, 17] was 90, the “Plant response rating, Ryegrass, Italian” value [10, 18] was 90 and the “Plant response rating, Ryegrass, Italian” value [10, 19] was 90. For the same compound, the “Ryegrass, Italian plant response rating” value [10, 20] was 90, the “Ryegrass, Italian plant response rating” value [10, 21] was 80 and the “Soybean plant response rating” value (soybean (Glycine max); [14]) was 0. For the same compound, the “Plant response rating, Soybean” value (soybean (Glycine max); [15]) was 20, the “Plant response rating, Soybean” value (soybean (Glycine max); [16]) was 25 and the “Plant response rating, Soybean” value (soybean (Glycine max); [18]) was 0. For the same compound, the “Plant response rating, Soybean” value (soybean (Glycine max); [19]) was 0, the “Soybean plant response rating” value (soybean (Glycine max); [20]) was 0 and the “Soybean plant response rating” value (soybean (Glycine max); [21]) was 10. For the same compound, the “Velvetleaf plant response rating” value [11, 14] was 35, the “Plant response rating, Velvetleaf” value [11, 15] was 85 and the “Plant response rating, Velvetleaf” value [11, 16] was 90. The “Plant response rating, Velvetleaf” value [11, 18] was 90, the “Plant response rating, Velvetleaf” value [11, 19] was 100 and the “Velvetleaf plant response rating” value [11, 20] was 100. The “Velvetleaf plant response rating” value [11, 21] was 80, the “Waterhemp plant response rating” value [12, 14] was 70 and the “Plant response rating, Waterhemp” value [12, 15] was 80. The “Plant response rating, Waterhemp” value [12, 16] was 98, the “Plant response rating, Waterhemp” value [12, 18] was 100 and the “Plant response rating, Waterhemp” value [12, 19] was 100. For the same compound, the “Waterhemp plant response rating” value [12, 20] was 100, the “Waterhemp plant response rating” value [12, 21] was 80 and the “Wheat plant response rating” value [13, 14] was 5. For the same compound, the “Plant response rating, Wheat” value [13, 15] was 30, the “Plant response rating, Wheat” value [13, 16] was 10 and the “Plant response rating, Wheat” value [13, 18] was 5. For the same compound, the “Plant response rating, Wheat” value [13, 19] was 45, the “Wheat plant response rating” value [13, 20] was 50 and the “Wheat plant response rating” value [13, 21] was 5.
